{"source": "patent US20110262567A1", "about": "“COMPOSITION FOR TREATING GOUT, CONTAINING ANGELICA GIGAS EXTRACT HAVING A XANTHINE OXIDASE-INHIBITING EFFECT AND AN INFLAMMATION-INDUCING ENZYME-INHIBITING EFFECT” (KOREA BIO HEALTH CO., LTD., priority 2008, published 2011)", "key": {"xanthine oxidase": {"molecular_target": "xanthine oxidase (Homo sapiens, UniProt P47989)", "sequence (P47989 whole entry, species assumed)": "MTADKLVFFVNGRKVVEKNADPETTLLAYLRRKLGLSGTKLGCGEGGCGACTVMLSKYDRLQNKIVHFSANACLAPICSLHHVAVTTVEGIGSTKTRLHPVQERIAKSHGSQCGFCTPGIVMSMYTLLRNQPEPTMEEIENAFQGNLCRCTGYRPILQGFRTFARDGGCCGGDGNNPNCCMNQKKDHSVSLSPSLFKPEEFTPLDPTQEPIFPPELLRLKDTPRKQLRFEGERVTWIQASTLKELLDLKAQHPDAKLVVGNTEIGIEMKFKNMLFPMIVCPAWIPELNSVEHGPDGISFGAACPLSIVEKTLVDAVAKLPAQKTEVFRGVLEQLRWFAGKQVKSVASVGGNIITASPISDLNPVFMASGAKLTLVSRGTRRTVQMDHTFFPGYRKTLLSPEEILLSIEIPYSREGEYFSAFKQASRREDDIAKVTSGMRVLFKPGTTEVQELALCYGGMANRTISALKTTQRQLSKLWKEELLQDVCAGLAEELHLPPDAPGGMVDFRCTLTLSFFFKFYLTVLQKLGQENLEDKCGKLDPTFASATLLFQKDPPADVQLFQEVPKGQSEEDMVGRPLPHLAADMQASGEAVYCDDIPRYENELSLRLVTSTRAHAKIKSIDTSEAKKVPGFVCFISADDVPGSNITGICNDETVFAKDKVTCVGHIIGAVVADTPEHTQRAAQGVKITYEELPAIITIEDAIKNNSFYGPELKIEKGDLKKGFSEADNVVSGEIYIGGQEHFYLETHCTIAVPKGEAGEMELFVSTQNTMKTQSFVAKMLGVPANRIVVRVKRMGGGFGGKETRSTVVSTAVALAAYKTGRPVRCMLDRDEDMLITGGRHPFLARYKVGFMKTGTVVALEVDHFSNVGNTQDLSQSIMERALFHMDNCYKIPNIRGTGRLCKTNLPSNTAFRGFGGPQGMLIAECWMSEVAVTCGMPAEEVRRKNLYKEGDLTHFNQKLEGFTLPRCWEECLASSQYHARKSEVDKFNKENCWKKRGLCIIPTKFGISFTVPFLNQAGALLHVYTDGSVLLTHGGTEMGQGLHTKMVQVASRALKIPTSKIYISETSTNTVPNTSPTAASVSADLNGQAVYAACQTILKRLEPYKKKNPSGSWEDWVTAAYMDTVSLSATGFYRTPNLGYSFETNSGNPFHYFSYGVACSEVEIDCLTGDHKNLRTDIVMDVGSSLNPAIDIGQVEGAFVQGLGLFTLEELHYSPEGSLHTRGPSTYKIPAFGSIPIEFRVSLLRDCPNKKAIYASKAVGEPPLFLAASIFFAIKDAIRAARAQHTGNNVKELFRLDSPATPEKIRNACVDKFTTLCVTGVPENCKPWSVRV", "assay": "Test on xanthine oxidase inhibition", "assay_type": "biochemical", "method": "In this experiment, xanthine was used as a substrate and xanthine oxidase was used as an enzyme to perform an enzyme-substrate reaction.\n250 μl of 50 mM potassium phosphate buffer (pH 7.5), 385 μl of Angelica gigas Nakai extract solution (prepared by dilution with 50 mM potassium phosphate buffer (pH 7.5) until the final concentrations of decursin and decursinol angelate become 1, 5, 10, 17.5, 20, 50 μg/ml), and 330 μl of xanthine solution were mixed with each other to prepare a reaction solution.\n35 μl of xanthine oxidase solution (final concentration of 0.4 U/ml) was added to the reaction solution, and reacted in a 37° C. incubator for 15 min. Then, absorbance (Ab) was measured at 295 nm.\nEach reaction solution was also prepared using each Angelica gigas Nakai extract (each final concentration of decursin and decursinol angelate was 1, 5, 10, 17.5, 20, or 50 μg/ml) without addition of the xanthine oxidase solution. Further, in the absence of the Angelica gigas Nakai extract, each reaction solution was prepared with or without the xanthine oxidase solution. […]\nA: a change in absorbance in the absence of composition (Absorbance with enzyme−Absorbance without enzyme)\nB: a change in absorbance in the presence of composition (Absorbance with enzyme−Absorbance without enzyme)"}, "Cox-2": {"system": "Cox-2", "assay": "Inflammation inhibition in hepatocytes of gout-induced animal model (Cox-2 western blot of liver)", "assay_type": "in vivo", "conditions": "rat, 50 mg/kg oral for 3 days after potassium oxonate; compared to hyperuricemia control group (model control)", "experimental": "In order to confirm the inhibitory effect of the Angelica gigas Nakai extract of the present invention on the inflammation-inducing enzyme Cox-2, the uricase inhibitor, potassium oxonate was administered to induce hyperuricemia.\nAs the experimental animal, 9-week old male sprague-dawley rats (250-280 g, Samtako, Inc.) were acclimated in a SPF chamber where the humidity and temperature were maintained at 50±5% and 24˜26° C. and feed and water were supplied ad libitum for 1 week, and then used for the experiment.\nIn the present experiment, the uricase inhibitor, potassium oxonate (150 mg/kg) was intraperitoneally administered one day before sample treatment, so as to induce hyperuricemia. The contents of uric acid before and after administration of potassium oxonate were measured and compared to each other, in order to confirm the hyperuricemia induction by administration of potassium oxonate.\nPotassium oxonate was suspended in 0.5% sodium carboxymethylcellulose (CMC-Na, 0.5% CMC with 0.1 M sodium acetate (pH5)), and used. […]\nAfter oral administration for 3 days, the experimental animals were fasted overnight, and then anesthetized with dry ice. […] 100 mg was dissected from the whole liver, and proteins were separated using a cell lysis buffer, and the protein concentration was measured by BCA protein assay. […]"}}}
{"smiles": "Oc1ncnc2[nH]ncc12", "note": "[allopurinol]", "values": [{"measurement": "IC90", "setting": "xanthine oxidase", "value": 38, "unit": "µg/mL"}, {"measurement": "Cox-2 expression in the hepatic tissue", "setting": "Cox-2", "value": "adversely increased"}]}
